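Assay format: 96-well plates, 48-hour exposure. GI50 is the concentration that inhibits growth by half.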 The source made the active and inactive calls. Rule as the data show it: active = GI50 up to about 1.1 µM and inactive = higher.
How the values were obtained:
Experiment in all cases: NCI tumour cell line growth inhibition, 48 h
[1] = test system: Malme-3M
[2] = test system: 786-0
[3] = test system: KM12
[4] = test system: HOP-62
[5] = test system: SF-268
[6] = test system: M14
[7] = test system: SK-OV-3
[8] = test system: COLO 205
[9] = test system: NCI-H226
[10] = test system: HOP-92
[11] = test system: UACC-62
[12] = test system: LOX IMVI
[13] = test system: A549
[14] = test system: T47D
[15] = test system: HCT-15
[16] = test system: NCI-H23
[17] = test system: ACHN
[18] = test system: NCI-H522
[19] = test system: A498

| Compound | GI50 [1] | GI50 [2] | GI50 [3] | GI50 [4] | GI50 [5] | GI50 [6] | GI50 [7] | GI50 [8] | GI50 [9] | GI50 [10] | GI50 [11] | GI50 [12] | GI50 [13] | GI50 [14] | GI50 [15] [µM] | GI50 [16] | GI50 [17] | GI50 [18] | GI50 [19] |
| --- | --- | --- | --- | --- | --- | --- | --- | --- | --- | --- | --- | --- | --- | --- | --- | --- | --- | --- | --- |
| C=C1C[C@H](O)[C@H](Br)C(C)(C)C12CCC(C)(Cl)C(Br)C2 (stereo partly drawn) | 5.87 µM (inactive) | 5.48 µM (inactive) | 1.48 µM (inactive) | 2.26 µM (inactive) | 6.87 µM (inactive) | 2.36 µM (inactive) | 3.03 µM (inactive) | 1.02 µM (active) | 2.27 µM (inactive) | 1.5 µM (inactive) | 5.85 µM (inactive) | 10 µM (inactive) | 0.566 µM (active) | 0.746 µM (active) | 7.45 | 0.445 µM (active) | 5.05 µM (inactive) | 3.83 µM (inactive) | – |
| Cc1sc2nc3n(sc4nc5sc(C)c(C)c5c(=O)n43)c(=O)c2c1C | – | > 100 µM (inactive) | > 100 µM (inactive) | – | > 100 µM (inactive) | > 100 µM (inactive) | > 100 µM (inactive) | > 100 µM (inactive) | > 100 µM (inactive) | > 100 µM (inactive) | 33.2 µM (inactive) | > 100 µM (inactive) | > 100 µM (inactive) | 0.935 µM (active) | > 100 | > 100 µM (inactive) | – | 16.4 µM (inactive) | – |
| CN1C(=O)C2(Cc3cn(C45CC67SSC(CO)(C(=O)N6C4Nc4ccccc45)N(C)C7=O)c4ccccc34)SSC1(CO)C(=O)N2C (stereo not drawn) | < 0.01 µM (active) | < 0.01 µM (active) | 0.139 µM (active) | 0.0634 µM (active) | 0.0191 µM (active) | < 0.01 µM (active) | 0.262 µM (active) | < 0.01 µM (active) | – | 0.053 µM (active) | 0.0239 µM (active) | 0.0114 µM (active) | 0.172 µM (active) | < 0.01 µM (active) | < 0.01 | < 0.01 µM (active) | < 0.01 µM (active) | < 0.01 µM (active) | 0.0291 µM (active) |
| CCOC(=O)c1nc2ccccc2nc1Oc1ccc(C(=O)OC)cc1 | > 100 µM (inactive) | > 100 µM (inactive) | > 100 µM (inactive) | > 100 µM (inactive) | > 100 µM (inactive) | > 100 µM (inactive) | > 100 µM (inactive) | > 100 µM (inactive) | > 100 µM (inactive) | > 100 µM (inactive) | > 100 µM (inactive) | > 100 µM (inactive) | > 100 µM (inactive) | > 100 µM (inactive) | > 100 | – | > 100 µM (inactive) | – | > 100 µM (inactive) |
| C#CCn1c(=O)c(C)cn(/C(=C/C(=O)OCC)C(=O)OCC)c1=O | 1.59 µM (inactive) | 2.84 µM (inactive) | 17.4 µM (inactive) | 15.8 µM (inactive) | 12.4 µM (inactive) | 2.92 µM (inactive) | 21.9 µM (inactive) | 2.38 µM (inactive) | 2.19 µM (inactive) | 3.01 µM (inactive) | 12.2 µM (inactive) | 10.4 µM (inactive) | 16.2 µM (inactive) | 4.73 µM (inactive) | 1.21 | 9.57 µM (inactive) | 1.84 µM (inactive) | – | 16 µM (inactive) |
| Cc1nc2cccc(F)c2c(=O)n1-c1nnc(C2CC2)s1 | – | > 10 µM (inactive) | > 10 µM (inactive) | > 10 µM (inactive) | > 10 µM (inactive) | > 10 µM (inactive) | > 10 µM (inactive) | > 10 µM (inactive) | > 10 µM (inactive) | > 10 µM (inactive) | > 10 µM (inactive) | > 10 µM (inactive) | > 10 µM (inactive) | > 10 µM (inactive) | > 10 | > 10 µM (inactive) | > 10 µM (inactive) | > 10 µM (inactive) | – |
| COc1cc(/C=C2\N=C(c3ccccc3)N(c3nc4ccc(Sc5ccccc5)cc4[nH]3)C2=O)ccc1O | 18 µM (inactive) | 21.7 µM (inactive) | 15.2 µM (inactive) | 42.7 µM (inactive) | 25.5 µM (inactive) | 15.6 µM (inactive) | 30.4 µM (inactive) | 18 µM (inactive) | – | 62.2 µM (inactive) | 15.2 µM (inactive) | 25.5 µM (inactive) | 30.5 µM (inactive) | 27 µM (inactive) | 21.9 | 26.8 µM (inactive) | 26.9 µM (inactive) | 18.8 µM (inactive) | 21.3 µM (inactive) |
| Cc1ccc(S(=O)(=O)NC(=O)NC(C(=O)O)C(C)C)cc1 (stereo not drawn) | > 100 µM (inactive) | > 100 µM (inactive) | > 100 µM (inactive) | > 100 µM (inactive) | > 100 µM (inactive) | > 100 µM (inactive) | > 100 µM (inactive) | > 100 µM (inactive) | – | > 100 µM (inactive) | > 100 µM (inactive) | > 100 µM (inactive) | > 100 µM (inactive) | > 100 µM (inactive) | > 100 | > 100 µM (inactive) | > 100 µM (inactive) | > 100 µM (inactive) | – |

Source: ChEMBL document CHEMBL1201862, “PubChem BioAssay data set” (2004)
